Each structure is given as a SMILES string. pIC50: −log10 of the molar value. Where a name gives a salt, the structure may show the parent alone.

The target of this assay is TrkA (Homo sapiens (Human), UniProt P04629). Briefly: TrkA Omnia Assay. The following applies: averaged IC50; 20 nM enzyme, 500 μM ATP, 10 μM peptide substrate. The format is biochemical. In short, it runs like this:
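Continuous fluorescent kinase read-out (ex 360 nm, em 485 nm) over 70 min, with initial rates fitted to 4- or 5-parameter logistic curves for IC50. Final conditions: 500 μM ATP, 10 μM Omnia Tyr Peptide #4, 20 nM TrkA, MOPS pH 7.5 buffer with MgCl2 and Triton X-100; enzyme and compound preincubated 10 min at ambient temperature.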

TrkA, sequence (P04629 33-796): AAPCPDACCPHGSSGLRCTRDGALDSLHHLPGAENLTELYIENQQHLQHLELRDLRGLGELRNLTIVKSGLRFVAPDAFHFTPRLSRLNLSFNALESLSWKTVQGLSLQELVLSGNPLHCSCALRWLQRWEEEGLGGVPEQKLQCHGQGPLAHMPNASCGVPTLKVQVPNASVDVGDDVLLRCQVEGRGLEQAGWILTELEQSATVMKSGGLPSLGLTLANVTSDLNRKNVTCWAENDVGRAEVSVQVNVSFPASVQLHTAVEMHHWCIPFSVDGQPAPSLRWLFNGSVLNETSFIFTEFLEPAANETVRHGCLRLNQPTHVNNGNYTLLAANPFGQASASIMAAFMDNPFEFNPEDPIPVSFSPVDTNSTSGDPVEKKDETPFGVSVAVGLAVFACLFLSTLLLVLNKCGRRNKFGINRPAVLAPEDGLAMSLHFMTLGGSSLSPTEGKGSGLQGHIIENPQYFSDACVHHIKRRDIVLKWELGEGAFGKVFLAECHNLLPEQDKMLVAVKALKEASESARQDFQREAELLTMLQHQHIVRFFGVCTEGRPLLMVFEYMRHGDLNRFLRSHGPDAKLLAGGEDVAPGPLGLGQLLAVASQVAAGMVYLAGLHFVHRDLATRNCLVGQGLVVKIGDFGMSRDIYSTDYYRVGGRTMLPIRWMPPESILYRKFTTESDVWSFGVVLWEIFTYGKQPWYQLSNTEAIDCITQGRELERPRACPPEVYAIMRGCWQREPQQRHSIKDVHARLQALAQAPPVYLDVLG

One may read the pIC50 as −log10 of the IC50, conventionally taken in molar units. Read a low pIC50 as a large IC50. Consider `Cc1nn(-c2ccccc2)c(NC(=O)N[C@@H]2CN(CC(F)(F)F)C[C@H]2c2cccc(F)c2)c1C` [Example 201, 1-(3,4-dimethyl-1-phenyl-1H-pyrazol-5-yl)-3-((3S,4R)-4-(3-fluorophenyl)-1-(2,2,2-trifluoroethyl)pyrrolidin-3-yl)urea], for which the pIC50 was 6.00 to 7.00.
For `COCCN1C[C@@H](NC(=O)Nc2cc(-c3cccnc3)nn2C)[C@H](c2cc(F)cc(F)c2)C1` [Example 57, 1-((3S,4R)-4-(3,5-difluorophenyl)-1-(2-methoxyethyl)pyrrolidin-3-yl)-3-(1-methyl-3-(pyridin-3-yl)-1H-pyrazol-5-yl)urea] the value was more than 7.00.
On to `COCCN1C[C@@H](NC(=O)Nc2c(C(N)=O)c(C(F)(F)F)nn2-c2ccccc2)[C@H](c2ccc(F)c(F)c2)C1` [Example 622, 5-(3-((3S,4R)-4-(3,4-difluorophenyl)-1-(2-methoxyethyl)pyrrolidin-3-yl)ureido)-1-phenyl-3-(trifluoromethyl)-1H-pyrazole-4-carboxamide], for which the pIC50 was more than 7.00.
Next, `COCCN1C[C@@H](NC(=O)Nc2c3c(nn2-c2ccccc2)CSC3)[C@H](c2cc(F)cc(F)c2)C1` [Example 89, 1-((3S,4R)-4-(3,5-difluoro-phenyl)-1-(2-methoxyethyl)pyrrolidin-3-yl)-3-(2-phenyl-4,6-dihydro-2H-thieno[3,4-c]pyrazol-3-yl) urea]: more than 7.00; `COCCN1C[C@@H](NC(=O)Nc2c(C)c(-c3ccn(C)n3)nn2-c2ccccc2)[C@H](c2ccc(F)cc2)C1` [Example 492, 1-(1′,4-dimethyl-1-phenyl-1H, 1′H-[3,3′-bipyrazol]-5-yl)-3-((3S,4R)-4-(4-fluorophenyl)-1-(2-methoxyethyl)pyrrolidin-3-yl)urea]: more than 7.00.
As to `COCCN1C[C@@H](NC(=O)Nc2c(C)c(C)nn2-c2ccccc2)[C@H](c2ccc(F)c(F)c2)C1` [Example 92, 1-((3S,4R)-4-(3,4-difluoro-phenyl)-1-(2-methoxyethyl)pyrrolidin-3-yl)-3-(3,4-dimethyl-1-phenyl-1H-pyrazol-5-yl)urea], the pIC50 is more than 7.00.
For `Cn1cc(CN2C[C@@H](NC(=O)Nc3c4c(nn3-c3ccccc3)CCC4)[C@H](c3ccc(F)c(F)c3)C2)nn1` [Example 253, 1-((3S,4R)-4-(3,4-difluorophenyl)-1-((1-methyl-1H-1,2,3-triazol-4-yl)methyl)pyrrolidin-3-yl)-3-(2-phenyl-2,4,5,6-tetrahydrocyclopenta[c]pyrazol-3-yl)urea] the value was 6.00 to 7.00; for `COCCN1C[C@@H](NC(=O)Nc2c(C)c(OC[C@H](O)CO)nn2-c2ccccc2)[C@H](c2ccc(F)c(F)c2)C1` [Example 176, 1-((3S,4R)-4-(3,4-difluorophenyl)-1-(2-methoxyethyl)pyrrolidin-3-yl)-3-(3-((R)-2,3-dihydroxypropoxy)-4-methyl-1-phenyl-1H-pyrazol-5-yl)urea], more than 7.00; for `COCCN1C[C@@H](NC(=O)Nc2cc(-c3ccc(F)cc3)nn2C)[C@H](c2ccc(F)c(F)c2)C1` [Example 113, 1-((3S,4R)-4-(3,4-difluorophenyl)-1-(2-methoxyethyl)pyrrolidin-3-yl)-3-(3-(4-fluoro-phenyl)-1-methyl-1H-pyrazol-5-yl)urea], more than 7.00.
`COc1ncccc1N1C[C@@H](NC(=O)Nc2c(Br)c(-c3cnn(C)c3)nn2-c2ccccc2)[C@H](c2ccccc2)C1` [Example 246, 1-(4-bromo-1′-methyl-1-phenyl-1H,1′H-[3,4′-bipyrazol]-5-yl)-3-((3S,4R)-1-(2-methoxypyridin-3-yl)-4-phenylpyrrolidin-3-yl)urea] had a pIC50 of more than 7.00.
The compound `COCCN1C[C@@H](NC(=O)Nc2c(Br)c(-c3ccccc3)nn2-c2ccccc2)[C@H](c2cc(F)cc(F)c2)C1` [Example 427, 1-(4-bromo-1,3-diphenyl-1H-pyrazol-5-yl)-3-((3S,4R)-4-(3,5-difluorophenyl)-1-(2-methoxyethyl)pyrrolidin-3-yl)urea] gave a pIC50 of more than 7.00.
As to `COCCN1C[C@@H](NC(=O)Nc2c(C(N)=O)c(C)nn2-c2ccccc2)[C@H](c2cc(F)cc(Cl)c2)C1` (relative stereo) [Example 625, 5-(3-((trans)-4-(3-chloro-5-fluorophenyl)-1-(2-methoxyethyl)pyrrolidin-3-yl)ureido)-3-methyl-1-phenyl-1H-pyrazole-4-carboxamide], the pIC50 is more than 7.00.
Next, `CCOc1nn(-c2ccccc2)c(NC(=O)N[C@@H]2CN(C(CO)COC)C[C@H]2c2ccc(F)c(F)c2)c1C` (stereo partly drawn) [Example 263, 1-((3S,4R)-4-(3,4-difluorophenyl)-1-(1-hydroxy-3-methoxypropan-2-yl)pyrrolidin-3-yl)-3-(3-ethoxy-4-methyl-1-phenyl-1H-pyrazol-5-yl)urea]: more than 7.00; `COCC(C(=O)OC)N1CC(NC(=O)Nc2c3c(nn2-c2ccccc2)CCC3)[C@H](c2ccccc2)C1` (stereo in doubt) [Example 258, methyl 3-methoxy-2-((trans)-3-phenyl-4-(3-(2-phenyl-2,4,5,6-tetrahydrocyclopenta[c]pyrazol-3-yl)ureido)pyrrolidin-1-yl)propanoate]: more than 7.00.
For `COCCN1C[C@@H](NC(=O)Nc2c(C)c(C[C@@H](C)O)nn2-c2ccccc2)[C@H](c2ccc(F)c(F)c2)C1` [Example 290, 1-((3S,4R)-4-(3,4-difluorophenyl)-1-(2-methoxyethyl)pyrrolidin-3-yl)-3-(3-((R)-2-hydroxypropyl)-4-methyl-1-phenyl-1H-pyrazol-5-yl)urea] the value was more than 7.00; for `COCCN1C[C@@H](NC(=O)Nc2cc(C(C)C)nn2-c2ccccc2)[C@H](c2cccc(F)c2)C1` (relative stereo) [Example 40, trans-1-(-4-(3-fluorophenyl)-1-(2-methoxyethyl)pyrrolidin-3-yl)-3-(3-isopropyl-1-phenyl-1H-pyrazol-5-yl)urea], more than 7.00.
With `COCCN1C[C@@H](NC(=O)Nc2c(C)c([C@H]3C[C@@H](O)C3)nn2-c2ccccc2)[C@H](c2ccc(F)c(F)c2)C1` [Example 450, 1-((3S,4R)-4-(3,4-difluorophenyl)-1-(2-methoxyethyl)pyrrolidin-3-yl)-3-(3-(cis-3-hydroxycyclobutyl)-4-methyl-1-phenyl-1H-pyrazol-5-yl)urea], the pIC50 is more than 7.00.
Turning to `COCCN1C[C@@H](NC(=O)Nc2c(-c3ccccc3)nn(C)c2C(F)(F)F)[C@H](c2ccc(F)c(F)c2)C1` [Example 647, 1-((3S,4R)-4-(3,4-difluorophenyl)-1-(2-methoxyethyl)pyrrolidin-3-yl)-3-(1-methyl-3-phenyl-5-(trifluoromethyl)-1H-pyrazol-4-yl)urea], the pIC50 is more than 7.00.
The compound `Cc1nn(-c2ccccc2)c(NC(=O)N[C@@H]2CN(CCO)C[C@H]2c2ccc(F)c(F)c2)c1C` [Example 191, 1-((3S,4R)-4-(3,4-difluorophenyvl)-1-(2-hydroxyethyl)pyrrolidin-3-yl)-3-(3,4-dimethyl-1-phenyl-1H-pyrazol-5-yl)urea] had a negative logarithm of the IC50 (pIC50) of 6.00 to 7.00.
Compound `COCCN1C[C@@H](NC(=O)Nc2c3c(nn2-c2ccccc2)C[S+]([O-])C3)[C@H](c2ccccc2)C1` (stereo partly drawn) [Example 95, 1-((3S,4R)-1-(2-methoxy-ethyl)-4-phenylpyrrolidin-3-yl)-3-(5-oxido-2-phenyl-4,6-dihydro-2H-thieno [3,4-c]pyrazol-3-yl)urea] gave a pIC50 of more than 7.00.
Turning to `COCCN1C[C@@H](NC(=S)Nc2c3c(nn2-c2ccccc2)CCC3)[C@H](c2ccccc2)C1` (relative stereo) [Example 21, 1-(trans-1-(2-methoxyethyl)-4-phenylpyrrolidin-3-yl)-3-(2-phenyl-2,4,5,6-tetrahydrocyclopenta[c]pyrazol-3-yl)thiourea], the pIC50 is more than 7.00.
For `COCCN1C[C@@H](NC(=O)Nc2c3c(nn2-c2ccccc2)CCC3)[C@H](c2cccc(F)c2)C1` [Example 116, 1-((3S,4R)-4-(3-fluoro-phenyl)-1-(2-methoxy-ethyl)pyrrolidin-3-yl)-3-(2-phenyl-2,4,5,6-tetrahydrocyclopenta [c]pyrazol-3-yl)urea] the value was more than 7.00; for `COCCN1C[C@@H](NC(=O)Nc2c(C)c(OC[C@H](C)O)nn2-c2ccccc2)[C@H](c2ccc(F)cc2)C1` [Example 368, 1-((3S,4R)-4-(4-fluorophenyl)-1-(2-methoxyethyl)pyrrolidin-3-yl)-3-(3-((S)-2-hydroxypropoxy)-4-methyl-1-phenyl-1H-pyrazol-5-yl)urea], more than 7.00.
Next, `COCCN1C[C@@H](NC(=O)Nc2c(C)c(OCCN3CCN(C)CC3)nn2-c2ccccc2)[C@H](c2ccc(F)c(F)c2)C1` [Example 551, 1-((3S,4R)-4-(3,4-difluorophenyl)-1-(2-methoxyethyl)pyrrolidin-3-yl)-3-(4-methyl-3-(2-(4-methylpiperazin-1-yl)ethoxy)-1-phenyl-1H-pyrazol-5-yl)urea trihydrochloride]: more than 7.00; `COCCN1C[C@@H](NC(=O)Nc2cc(-c3ccccn3)nn2C)[C@H](c2cc(F)cc(F)c2)C1` [Example 56, 1-((3S,4R)-4-(3,5-difluorophenyl)-1-(2-methoxyethyl)pyrrolidin-3-yl)-3-(1-methyl-3-(pyridin-2-yl)-1H-pyrazol-5-yl)urea]: more than 7.00; `CO[C@@H](C)CN1C[C@@H](NC(=O)Nc2c3c(nn2-c2ccccc2)CCC3)[C@H](c2ccccc2)C1` [Example 184, 1-((3S,4R)-1-((S)-2-methoxypropyl)-4-phenylpyrrolidin-3-yl)-3-(2-phenyl-2,4,5,6-tetrahydrocyclopenta[c]pyrazol-3-yl)urea]: 5.00 to 6.00.
Next, `COCCN1C[C@@H](NC(=O)Nc2cc(-c3cnccn3)nn2C)[C@H](c2ccc(F)c(F)c2)C1` [Example 155, 1-((3S,4R)-4-(3,4-difluorophenyl)-1-(2-methoxyethyl)pyrrolidin-3-yl)-3-(1-methyl-3-(pyrazin-2-yl)-1H-pyrazol-5-yl)urea]: more than 7.00.

The values are drawn from patent US10323022B2, “Pyrrolidinyl urea, pyrrolidinyl thiourea and pyrrolidinyl guanidine compounds as TrkA kinase inhibitors” (Array BioPharma Inc., priority 2011, dated 2019).
